The text below walks through data of patent US20210205638A1, “PARATHYROID HORMONE AND REGENERATION OF DEGENERATIVE DISCS DISEASE” (THE JOHNS HOPKINS UNIVERSITY, priority 2017, published 2021).

Holding throughout (assay type): in vivo, mouse
The test system of one assay is NP cells. Nature of the assay: iPTH in PTH1R KO and wild-type mice: qRT-PCR of CCN2 and ACAN. How it is done:
(§1) The 11 month-old PTH1R^+/+ and PTH1R^−/− male mice were randomized into four groups: PTH1R^+/++PTH (1-34), PTH1R^+/++Vehicle, PTH1R^−/−+PTH (1-34) and PTH1R^−/−+Vehicle groups (n=8 per group). The 11 month-olds IFT88^+/+ and IFT88^−/− male mice were randomized into four groups: IFT88^+/++PTH (1-34), IFT88^+/++Vehicle, IFT88^−/−+PTH (1-34) and IFT88^−/−+Vehicle groups (n=8 per group). Mice were subcutaneously injected with either PTH (1-34) or vehicle (1 mM acetic acid in phosphate buffered saline (PBS) with equivalent volume of PTH) daily, 5 days per week, and all mice were sacrificed 4 weeks after treatment with PTH (1-34)/vehicle.
After protein extraction, specimen from the same group of mice were prepared for RNA extraction using TRIzol reagent (Invitogen) according to the manufacturer's instruction. The purity of RNA was tested by measuring the absorbance at 260 and 280 nm. For qRT-PCR, two micrograms of RNA was reverse transcribed into cDNA using the SuperScript firststrand synthesis system (Invitrogen) and analyzed with SYBR Green-Master Mix (Qiagen) in the thermal cycler with two sets of primers specific for each target gene. Relative expression was calculated for each gene by the 2^−ΔΔCT method, with GAPDH for normalization.
On the technique in general: Quantitative PCR measures a nucleic acid by following its amplification.

In the next assay the test system is NP tissue. Nature of the assay: iPTH in PTH1R KO mice: Western blot of NP tissue. How it is done: as §1
Western blot analyses were conducted on the protein lysates from in vitro cultured NP cells or NP tissues from mice at specific time points after PTH (1-34) treatment and human at different ages with lumbar disc degeneration. The protein extract was centrifuged, the concentration of supernatant evaluated by DC protein assay (Bio-Rad Laboratories), and then separated by SDS-PAGE and blotted on a polyvinylidene fluoride membrane (Bio-Rad Laboratories). Following incubation in specific antibodies, we detected proteins using an enhanced chemiluminescence kit (Amersham Biosciences). We used specific antibodies recognizing rabbit CTGF (CCN2) (Abcam, 1:1000), Aggrecan (ACAN) (Abcan, 1:1000), p-Smad2 (Cell Signaling Technology Inc., 1:1000), Smad2 (Cell Signaling Technology Inc., 1:1000), GAPDH (Cell Signaling Technology Inc., 1:1000), CREB (Abcam, 1:2500), pCREB (Abcam, 1:2500), PTH1R PRB-635P (Covance, 1:100), PTH1R PRB-640P (Covance, 1:500) and goat integrin β6 (Santa Cruz, 1:500) to examine the protein concentrations in the lysates. Co-immunoprecipitation analyses were conducted on the nuclear and cytoplasmic protein extraction using NE-PER Nuclear and Cytoplasmic Extraction Kit (Pierce Thermo Scientific, 78833) from in vitro cultured NP cells treated with PTH (1-34) or vehicle.

The subject of the next assay is IFT88-/- mice. Nature of the assay: iPTH in IFT88-/- and wild-type mice: PPCT IVD volume and IVD histological score. The source says:
Mice carrying the PTH1R gene flanked by loxP sites (PTH1R^flox/flox) were mated with Noto^Cre mice to generate mice bearing Noto^Cre and a floxed PTH1R allele in their germline. These mice were backcrossed to homozygous floxed mice (Noto^Cre/+/PTH1R^flox/+::PTH1R^flox/flox) to generate mice with inactivation of both alleles in notochord derived cells (genotype […]). Homozygous disruption of the Noto locus is perinatally lethal; viable offspring have genotypes of either Noto^Cre/+:: PTH1R^flox/flox (mice with PTH1R conditional deletion in Noto lineage cells are referred to as “[…]” in the text) or Noto^+/+:: PTH1R^flox/flox (wild-type littermates hereinafter referred to as “PTH1R^+/+” in the text). The genotype of transgenic mice was determined by PCR analyses of genomic DNA isolated from mouse tails. The floxed PTH1R allele was identified with primers lox1F (5-[…] ID NO: 1) and lox1R (5-[…] ID NO: 2). The genotyping for the Cre transgene was performed by PCR with the primers […] ID NO: 3) […] ID NO: 4). We generated Noto^Cre/+:: ROSA26-lacZ^flox/flox by crossing Noto mice with mice homozygous with a loxP-flanked DNA stop sequence, preventing expression of the downstream lacZ gene. IFT88^flox/flox mouse model has been generated as descripted. A NP tissue-specific primary cilia knock-out (KO) mouse line was generated by crossing NotoCre mice with IFT88^flox/flox mice, in which the primary cilia were deleted from the NP tissue. The loxP IFT88 allele was identified with the primers lox2F ([NT] ID NO: 5) and lox2R ([NT] ID NO: 6). The 11 month-old PTH1R^+/+ and PTH1R^-/- male mice were randomized into four groups: PTH1R^+/++PTH (1-34), PTH1R^+/++Vehicle, PTH1R^-/-+PTH (1-34) and PTH1R^-/-+Vehicle groups (n=8 per group). […] Quantitative histomorphometric analysis was conducted in a blinded fashion with Image-Pro Plus Software version 6.0 (Media Cybernetics Inc). […] Five randomly selected sections per mice in each group at L3-L4 level were chosen for quantitative histomorphometric analysis. […] The percentage area of CCN2 and ACAN positive staining was calculated by measuring the positive area to the whole area of the L3-L4 in each group. […] The images were reconstructed and analyzed using the GPU-CT-Reconstruction software (applied by the BL13W1 experimental station) and the VG Studio Max 3D software (version 2.1, Volume Graphics GmbH, Germany) respectively. […] The 3D quantitative analysis of IVDs was performed with the commercially available Image Pro Analyzer 3D software (Version 7.0, Media Cybernetics, Inc., USA). The 3D structural parameters analyzed for the mean height and volume and thickness distribution of IVDs. […]

In the case of `CC[C@H](C)[C@H](NC(=O)[C@H](CCC(=O)O)NC(=O)[C@H](CO)NC(=O)[C@@H](NC(=O)[C@@H](N)CO)C(C)C)C(=O)N[C@@H](CCC(N)=O)C(=O)N[C@@H](CC(C)C)C(=O)N[C@@H](CCSC)C(=O)N[C@@H](Cc1cnc[nH]1)C(=O)N[C@@H](CC(N)=O)C(=O)N[C@@H](CC(C)C)C(=O)NCC(=O)N[C@@H](CCCCN)C(=O)N[C@@H](Cc1cnc[nH]1)C(=O)N[C@@H](CC(C)C)C(=O)N[C@@H](CC(N)=O)C(=O)N[C@@H](CO)C(=O)N[C@@H](CCSC)C(=O)N[C@@H](CCC(=O)O)C(=O)N[C@@H](CCCN=C(N)N)C(=O)N[C@H](C(=O)N[C@@H](CCC(=O)O)C(=O)N[C@@H](Cc1c[nH]c2ccccc12)C(=O)N[C@@H](CC(C)C)C(=O)N[C@@H](CCCN=C(N)N)C(=O)N[C@@H](CCCCN)C(=O)N[C@@H](CCCCN)C(=O)N[C@@H](CC(C)C)C(=O)N[C@@H](CCC(N)=O)C(=O)N[C@@H](CC(=O)O)C(=O)N[C@H](C(=O)N[C@@H](Cc1cnc[nH]1)C(=O)N[C@@H](CC(N)=O)C(=O)N[C@@H](Cc1ccccc1)C(=O)O)C(C)C)C(C)C` [PTH (1-34), teriparatide], in the assay with NP cells (NP cells of wild-type mice), the “mRNA expression of ACAN” value is “significantly increased” and the “mRNA expression of CCN2” value is reported as “significantly increased”. Moreover, in the assay with NP cells (PTH1R KO mice), the “PTH increase of mRNA expression of ACAN” value is “blunted” and the “PTH increase of mRNA expression of CCN2” value is reported as “blunted”. In the assay with NP tissue, the “PTH induced increase in level of ACAN” value is recorded as “diminished”, the “PTH induced increase in level of CCN2” value was “diminished” and the “PTH induced increase in level of pSmad2” value is “diminished”. Further, the “improvement of IVD scores by iPTH” value in the assay with IFT88-/- mice (IFT88-/- mice) was “impaired”. In addition, the “iPTH-increased IVD volume” value with IFT88-/- mice (IFT88-/- mice relative to wild-type mice) is reported as “blunted”. For the same molecule, in the assay on IFT88-/- mice (wild-type mice), the IVD scores entry is “improvement” and the IVD volume result is on record as “increased”.
